The source of these data is ChEMBL document CHEMBL3045377, “An aphid repellent glycoside from Solanum laxum” (2000).

Format in all cases: functional
Experiment [1] relates to Schizaphis graminum. Kind of experiment: Feeding deterrence activity against Schizaphis graminum fed on artificial diet containing compound assessed as relative survival at 250 uM after 24 hr by non-choice assay (reference value: 100 +/-0%).
Experiment [2] deals with Schizaphis graminum. Kind of experiment: Toxicity against Schizaphis graminum fed on artificial diet containing compound assessed as relative survival at 50 uM after 24 hr by non-choice assay (reference value: 100 +/-0%).
Experiment [3] relates to Schizaphis graminum. Kind of experiment: Feeding deterrence activity against Schizaphis graminum fed on artificial diet containing compound assessed as relative survival at 250 uM after 12 hr by non-choice assay (reference value: 100 +/-0%).
Experiment [4] has as its system Schizaphis graminum. Kind of experiment: Toxicity against Schizaphis graminum fed on artificial diet containing compound assessed as relative survival at 250 uM after 24 hr by non-choice assay (reference value: 100 +/-0%).
For experiment [5], the system named is Schizaphis graminum. Kind of experiment: Feeding deterrence activity against Schizaphis graminum fed on artificial diet containing compound assessed as relative survival at 500 uM after 12 hr by non-choice assay (reference value: 100 +/-0%).
Experiment [6] concerns Schizaphis graminum. Kind of experiment: Feeding deterrence activity against Schizaphis graminum fed on artificial diet containing compound assessed as relative survival at 50 uM after 12 hr by non-choice assay (reference value: 100 +/-0%).
The test system of experiment [7] is Schizaphis graminum. Description: Feeding deterrence activity against Schizaphis graminum fed on artificial diet containing compound assessed as relative survival at 500 uM after 24 hr by non-choice assay (reference value: 100 +/-0%).
Experiment [8] has as its system Schizaphis graminum. Kind of experiment: Feeding deterrence activity against Schizaphis graminum fed on artificial diet containing compound assessed as relative survival at 100 uM after 12 hr by non-choice assay (reference value: 100 +/-0%).
The test system of experiment [9] is Schizaphis graminum. Kind of experiment: Toxicity against Schizaphis graminum fed on artificial diet containing compound assessed as relative survival at 500 uM after 24 hr by non-choice assay (reference value: 100 +/-0%).
In experiment [10] the test system is Schizaphis graminum. Description: Feeding deterrence activity against Schizaphis graminum fed on artificial diet containing compound assessed as relative survival at 100 uM after 24 hr by non-choice assay (reference value: 100 +/-0%).
Experiment [11] relates to Schizaphis graminum. Description: Feeding deterrence activity against Schizaphis graminum fed on artificial diet containing compound assessed as relative survival at 50 uM after 24 hr by non-choice assay (reference value: 100 +/-0%).
The test system of experiment [12] is Schizaphis graminum. Kind of experiment: Toxicity against Schizaphis graminum fed on artificial diet containing compound assessed as relative survival at 100 uM after 24 hr by non-choice assay (reference value: 100 +/-0%).

In the case of `C[C@H]1CC[C@@]2(OC1)O[C@H]1[C@H](O)[C@H]3[C@@H]4CC=C5C[C@@H](O[C@@H]6O[C@H](CO)[C@H](O[C@@H]7O[C@H](CO)[C@@H](O)[C@H](O)[C@H]7O[C@@H]7O[C@H](CO)[C@@H](O)[C@H](O)[C@H]7O)[C@H](O)[C@H]6O[C@@H]6O[C@@H](C)[C@H](O)[C@@H](O)[C@H]6O)CC[C@]5(C)[C@H]4CC[C@]3(C)[C@H]1[C@@H]2C` [Luciamin], the figures for the survival at 250 µM in [1], in experiment [3] and in experiment [4] were 72%, 85% and 48%, respectively. Besides, the survival at 50 µM in [2] is 47%; in experiment [6], 93%; in experiment [11] it was 64%. For the same compound, the survival at 500 µM was determined as 70% in experiment [5], 76% in experiment [7] and 40% in [9]. Besides, the survival at 100 µM turned out to be 80% in experiment [8], 70% in [10] and 49% in experiment [12].
